Results: patent US20230240300A1, “NANO[…] MATERIAL BASED ON NIOBIUM OLIGOMERS, OBTENTION METHOD, AND USE” (UNIVERSIDADE FEDERAL DE MINAS GERAIS, priority 2020, published 2023)

System: coronavirus
Experiment: viral load reduction study, compound mixed with virus suspension
Type: cell-based
Settings: eight parts compound mixed with one part virus suspension, room temperature, 10 min contact; FIG. 4(A)
Procedure: For viral load reduction studies directly employing the coronavirus, eight parts of the compound were adapted to room temperature (RT) and mixed with one part of the virus suspension. Immediately after incubation for defined periods at room temperature, the mixture was diluted 1:10. After four days of incubation at 37° C. in a CO2 incubator, cells were microscopically examined for virus-specific cytopathogenic effects after 10 min of virus contact with the niobium compound. All tests were performed in triplicate.
Initially, exploratory studies were carried out with different proportions of the compounds and with the materials separately. […] In fact, the results of samples S10 (representing a solution containing pure CTAB dissolved in water) and S12 (sample containing the same content of CTAB reacted with niobium), clearly indicate the potentiated effect of the Nb-CTAB species.

## CCCCCCCCCCCCCCCC[N+](C)(C)C.[Br-] [CTAB, hexadecyltrimethylammonium bromide]
  viral load reduction: approximately 30%
